Measured values reported in patent publication US12458605B2, “Lipid nanoparticle” (National University Corporation Hokkaido University, priority 2020, dated 2025).

Assays:
liver = test: In vivo Fluc activity of FlucmRNA-loaded LNP by in vivo imaging, liver; conditions: Balb/c mice, 6 hours; for Fluc Activity in liver: FlucmRNA-loaded LNP i.v. 0.1 mg mRNA/kg
Description: (§1) Then, each prepared FlucmRNA-loaded lipid nanoparticles were administered to Balb/c mice (Charles River Laboratories Japan, Inc., 7 weeks old, female) and in vivo gene expression activity was examined. Specifically, each FlucmRNA-loaded lipid nanoparticles were intravenously administered to Balb/c mice at 0.1 mg mRNA/kg, and Fluc activities in the liver and spleen at 6 hours later were measured. Fluc activity was measured by in vivo imaging system (Perkin Elmer, IVIS200) after administration of VivoGlo Luciferin, In Vivo Grade (Promega, P1041) dissolved with PBS to 15 mg/mL, via tail vein at a dose of 1.5 mg per mouse. The unit of Fluc activity is the emission intensity per unit area (Avg Radiance [p/s/cm2/sr]) at the maximum emission wavelength of about 560 nm. The results of measurement of the Fluc activity (Avg Radiance [p/s/cm2/sr]) in the liver and spleen of mice administered each FlucmRNA-loaded lipid nanoparticles are shown in Tables 5-7.

[1] = Average particle size (ζ-Average) and PDI by dynamic light scattering (Zetasizer Nano ZSP); format: physicochemical
Description: The average particle size (ζ-Average) and PDI in PBS(−) of lipid nanoparticles were measured using “Zetasizer Nano ZSP”, an analyzer utilizing dynamic light scattering (manufactured by Malvern).
Measurement of average particle size and PDI of the lipid nanoparticles were carried out with the same method as the measurement of average particle size of mRNA-LNP.
The average particle size (ζ-Average) and PDI in PBS (−) of lipid nanoparticles were measured using “Zetasizer Nano ZSP”, an analyzer utilizing dynamic light scattering (manufactured by Malvern).

F7 = test: In vivo F7 knockdown, plasma F7 enzyme activity (BIOPHEN FVII), Balb/c mice; conditions: i.v. 0.025 mg siRNA/kg, plasma at 24 hours; for F7 enzyme activity (Ratio using MC3 as 1): relative plasma F7 activity of MC3 LNP as 1; for F7 enzyme activity (%): untreated mice as 100%
Description: Then, each prepared F7siRNA-loaded lipid nanoparticles were administered to Balb/c mice (Charles River Laboratories Japan, Inc., 5 weeks old, female) and in vivo F7 knockdown activity was examined. Specifically, BALB/c mice were intravenously administered F7siRNA-loaded lipid nanoparticles comprising the lipids described in Table 9 at 0.025 mg siRNA/kg and F7siRNA-loaded lipid nanoparticles comprising the lipids described in Tables 10 and 11 at 0.025 mg siRNA/kg, and the plasma F7 enzyme activity at 24 hours later was measured using BIOPHEN FVII (Biophen, A221304). Relative plasma F7 enzyme activity (%) of mice administered each F7siRNA-loaded lipid nanoparticles was calculated using plasma F7 enzyme activity of untreated mice as 100%. Furthermore, the ratio was calculated using the relative plasma F7 enzyme activity (%) of mice administered MC3-comprising F7siRNA-loaded lipid nanoparticles as 1. The results of measurement of CL4F6 derivative nanoparticles are shown in Tables 9 and 10, and results of measurement of CL15F6 derivative nanoparticles in Table 11.

[2] = Storage stability of FlucmRNA-loaded LNP at −80, 5, 25 and 40° C.; format: physicochemical; conditions: for period for which quality remained good, −80° C.: maximum storage period 1 week; for quality at production (storage stability criteria): criteria: PDI 0.2 or less, encapsulation 80% or more
Description: Lipid nanoparticles were allowed to stand at each temperature of −80° C., 5° C., 25° C., and 40° C., and after keeping for each period of time, average particle size, PDI, and nucleic acid encapsulation rate were measured. Lipid nanoparticles which satisfy following all three conditions were defined that the quality was remained well: the average particle size is maintained within +/−20 nm based on the date of LNP preparation; PDI remains high uniformity with a value of 0.2 or less; and the nucleic acid encapsulation rate is also maintained at 80% or more. As a result of measuring average particle size, PDI, and nucleic acid encapsulation rate after each FlucmRNA-loaded lipid nanoparticle was allowed to stand at −80° C., 5° C., 25° C., and 40° C. respectively and kept for each period of time, periods of time defined as the quality of the lipid nanoparticles was remained well are shown in Tables 13 and 14. The lipid nanoparticles which remain in good quality with standing at 5° C. for one week or more can be evaluated as having excellent stability.

[3] = siRNA/mRNA encapsulation rate by Ribogreen reagent (section IV); format: physicochemical; conditions: for % siRNA encapsulation: F7siRNA-loaded LNP, 50:10:38.5:1.5, N/P ratio 6; for % mRNA encapsulation: FlucmRNA-loaded LNP, 50:10:38.5:1.5
Description: The encapsulation rates of siRNA and mRNA of lipid nanoparticles were measured with Ribogreen reagent. A solution diluted with TE buffer solution was arranged so that lipid nanoparticle concentration as nucleic acid concentration to be 8 μg/mL, as a solution for measuring nanoparticle surface nucleic acid concentration. In addition, a solution for measuring total nucleic acid concentration was arranged so that lipid nanoparticle concentration as nucleic acid concentration to be 1.2 μg/mL, which is 1% (w/w) concentration of X-triton100, by adding X-triton100. For 100 μL of each solution, 100 μL of Ribogreen (registered trademark) reagent (Quant-iT™ RiboGreen™ RNA Reagent, manufactured by Thermofisher Scientific) was mixed well in the wells of 96-well microplate (black, made of polystyrene, flat bottom, manufactured by Corning), and the fluorescence intensity at an excitation wavelength of 485 nm and a measurement wavelength of 528 nm was measured with a microplate reader. Nucleic acid concentration was calculated by calibration curve created by measuring the fluorescence intensity of nucleic acid solution containing 1% X-triton100 (nucleic acid concentration: 0-2.5 μg/mL) as same as aforementioned. Nucleic acid encapsulation rate of each lipid nanoparticle was calculated by the following formula: Encapsulation rate %=(nucleic acid concentration in solution for measuring total nucleic acid concentration (μg/mL)−nucleic acid concentration in solution for measuring nanoparticle surface nucleic acid concentration (μg/mL))/nucleic acid concentration in solution for measuring total nucleic acid concentration (μg/mL)×100. <Results>
The encapsulation rate of mRNA of lipid nanoparticles was measured using Ribogreen (manufactured by life technologies).

spleen = test: In vivo Fluc activity of FlucmRNA-loaded LNP by in vivo imaging, spleen; conditions: Balb/c mice, 6 hours; for Fluc Activity in spleen: FlucmRNA-loaded LNP i.v. 0.1 mg mRNA/kg; for Fluc activity in the spleen, compared with CL15F6: versus LNP comprising CL15F6 (Table 7)
Description: as §1

[4] = F7siRNA-loaded LNP, 50:10:38.5:1.5, N/P ratio 6
[5] = FlucmRNA-loaded LNP, 50:10:38.5:1.5
[6] = FlucmRNA-loaded LNP, lipid:DSPC:cholesterol:DMG-PEG2K 50:10:38.5:1.5

SMILES | Fluc Activity in liver (liver) | PDI [1, 4] | ζ-Average (nm) [1, 4] [nm] | PDI [1, 5] | ζ-Average (nm) [1, 6] [nm] | F7 enzyme activity (Ratio using MC3 as 1) (F7) | period for which quality remained good, −80° C. [2] [week] | period for which quality remained good, 5° C. ([2]; maximum storage period 5 weeks) | period for which quality remained good, 25° C. ([2]; maximum storage period 5 weeks) | period for which quality remained good, 40° C. (weeks) ([2]; maximum storage period 5 weeks) | % siRNA encapsulation [3] [%] | % mRNA encapsulation [3] [%] | Fluc Activity in spleen (spleen) | F7 enzyme activity (%) (F7) | quality at production (storage stability criteria) [2] | Fluc activity in the spleen, compared with CL15F6 (spleen; 0.1 mg mRNA/kg) | Fluc activity in the liver, compared with CL15F6 (liver; 0.1 mg mRNA/kg, versus LNP comprising CL15F6 (Table 7)) | period for which quality remained good, 40° C. (days) ([2]; maximum storage period 5 weeks) [day days] | Fluc activity in the spleen, compared with CL4F6 (spleen; 0.1 mg mRNA/kg, versus LNP comprising CL4F6 (Tables 5 and 6))
CCCCCCCCCCCCCCC(C)C(=O)OCCCCCCC(O)(CCCCCCOC(=O)C(C)CCCCCCCCCCCCCC)CCCCOC(=O)C1CCN(C)CC1 (stereo not shown) [CL15F 16-1] | 2.18E+05 Avg Radiance [p/s/cm2/sr] | 0.088 | 122.5 | 0.182 | 187.70 | 1.37 | 0 | 0 weeks | 0 weeks | 0 | 99.0 | 94.0 | 1.27E+06 Avg Radiance [p/s/cm2/sr] |  |  |  |  |  | 
CCCCCCCCCC(CCCCCCC)C(=O)OCCCCCCC(O)(CCCCCCOC(=O)C(CCCCCCC)CCCCCCCCC)CCCCN(CCC)CCC (stereo not shown) [CL4F 11-7] | 1.23E+08 Avg Radiance [p/s/cm2/sr] | 0.019 | 94.76 | 0.021 | 79.45 |  | 1 | 5 weeks | 5 weeks | 5 | 99.8 | 99.7 | 2.03E+06 Avg Radiance [p/s/cm2/sr] | 14.1 |  |  |  |  | 
CCCCC(CCCC)C(=O)OCCCCCCC(O)(CCCCCCOC(=O)C(CCCC)CCCC)CCCCOC(=O)C1CCN(C)CC1 [CL15F 6-4] | 1.84E+06 Avg Radiance [p/s/cm2/sr] | 0.255 | 230.7 | 0.316 | 312.10 | 2.28 |  |  |  |  | 91.5 | 66.7 | 3.39E+07 Avg Radiance [p/s/cm2/sr] |  | Does not meet the criteria for “good” at production | higher Fluc activity |  |  | 
CCCCCCCCC(CCCC)C(=O)OCCCCCCC(O)(CCCCCCOC(=O)C(CCCC)CCCCCCCC)CCCCOC(=O)C1CCN(C)CC1 (stereo not shown) [CL15F 10-4] | 2.07E+06 Avg Radiance [p/s/cm2/sr] | 0.021 | 126.8 | 0.030 | 146.10 | 2.00 | 1 | 5 weeks | 5 weeks | 5 | 100.3 | 98.7 | 3.97E+06 Avg Radiance [p/s/cm2/sr] |  |  |  |  |  | 
CCCCCCCC(CCC)C(=O)OCCCCCCC(O)(CCCCCCOC(=O)C(CCC)CCCCCCC)CCCCOC(=O)C1CCN(C)CC1 (stereo not shown) [CL15F 9-3] | 1.16E+06 Avg Radiance [p/s/cm2/sr] | 0.172 | 200.4 | 0.044 | 196.80 | 1.50 | 0 | 5 weeks | 5 weeks | 5 | 98.3 | 95.5 | 7.47E+06 Avg Radiance [p/s/cm2/sr] |  |  | higher Fluc activity |  |  | 
CCCCCCCCCCCCC(CC)C(=O)OCCCCCCC(O)(CCCCCCOC(=O)C(CC)CCCCCCCCCCCC)CCCCOC(=O)C1CCN(C)CC1 (stereo not shown) [CL15F 14-2] | 1.03E+07 Avg Radiance [p/s/cm2/sr] | 0.13 | 143.9 | 0.117 | 158.90 | 1.82 | 1 | 5 weeks | 5 weeks | 5 | 100.2 | 95.70 | 7.58E+06 Avg Radiance [p/s/cm2/sr] |  |  | higher Fluc activity | higher Fluc activity |  | 
CCCCCCCCCCCCC(CC)C(=O)OCCCCCCC(O)(CCCCCCOC(=O)C(CC)CCCCCCCCCCCC)CCCCN(CCC)CCC (stereo not shown) [CL4F 14-2] | 4.08E+07 Avg Radiance [p/s/cm2/sr] | 0.076 | 80.87 | 0.078 | 74.02 |  | 0 | 0 week weeks | 0 week weeks |  | 98.0 | 94.0 | 3.66E+06 Avg Radiance [p/s/cm2/sr] | 7.9 |  |  |  | 0 | higher Fluc activity
CCCCCCCCCCCCCCCC(=O)OCCCCCCC(O)(CCCCCCOC(=O)CCCCCCCCCCCCCCC)CCCCOC(=O)C1CCN(C)CC1 [CL15F 16-0] | 1.97E+05 Avg Radiance [p/s/cm2/sr] | 0.238 | 109.6 | 0.234 | 195.90 | 1.48 |  |  |  |  | 101.0 | 100.1 | 4.59E+05 Avg Radiance [p/s/cm2/sr] |  | Does not meet the criteria for “good” at production |  |  |  | 
